Experimental data published in publication PMC8072286, “Gcn5-Related N-Acetyltransferases (GNATs) With a Catalytic Serine Residue Can Play Ping-Pong Too” (Frontiers in Molecular Biosciences, 2021).

Biological target: T1, PA3944 (Pseudomonas aeruginosa, UniProt Q9HX72)
T1 construct: heterologous expression; N-terminal polyhistidine tag kept for kinetics, removed for crystallization; monomer in solution
Test: X-ray crystal structure ([…] Å)
Type: binding
Details: co-crystallized with 5 mM AcCoA, donor site

T1 sequence (Q9HX72 whole entry): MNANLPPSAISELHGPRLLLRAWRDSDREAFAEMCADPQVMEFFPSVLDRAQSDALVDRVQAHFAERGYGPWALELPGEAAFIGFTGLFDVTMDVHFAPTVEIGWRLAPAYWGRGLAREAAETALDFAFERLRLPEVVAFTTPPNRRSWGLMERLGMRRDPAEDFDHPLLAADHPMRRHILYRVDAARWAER

Structure (SMILES)	X-ray crystal structure (1.80 Å) (AcCoA modeled in chain B)	X-ray crystal structure (1.80 Å) (CoA modeled in chain A)
CC(=O)SCCNC(=O)CCNC(=O)[C@H](O)C(C)(C)COP(=O)(O)OP(=O)(O)OC[C@H]1O[C@@H](n2cnc3c(N)ncnc32)[C@H](O)[C@@H]1OP(=O)(O)O [AcCoA]	we modeled CoA in chain A and AcCoA in chain B	–
CC(C)(COP(=O)(O)OP(=O)(O)OC[C@H]1O[C@@H](n2cnc3c(N)ncnc32)[C@H](O)[C@@H]1OP(=O)(O)O)[C@@H](O)C(=O)NCCC(=O)NCCS [CoA]	–	we modeled CoA in chain A and AcCoA in chain B
